In patent publication US6358885B1, “Substituted phenylheterocyclic herbicides” (Mississippi State University, priority 1992, dated 2002):

Experiments:
chickweed [1] = assay: Test B preemergence/postemergence greenhouse plant response rating 0 to 10; format: in vivo, Stellaria media; conditions: 0 to 10 scale
How it was run: (§1)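 Postemergence treatment of plants two to eighteen cm tall ran alongside preemergence treatment of planted seed, each using compound in a non-phytotoxic solvent.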

corn = assay: as above; format: in vivo, Zea mays; conditions: 0 to 10 scale
How it was run: as §1

crabgrass = assay: as above; format: in vivo, Digitaria spp.; conditions: 0 to 10 scale
How it was run: as §1

morningglory [2] = assay: as above; format: in vivo, Ipomoea hederacea; conditions: 0 to 10 scale
How it was run: as §1

rape = assay: as above; format: in vivo, Brassica napus; conditions: 0 to 10 scale
How it was run: as §1

sorghum = assay: as above; format: in vivo, Sorghum bicolor; conditions: 0 to 10 scale
How it was run: as §1

soybean [3] = assay: as above; format: in vivo, Glycine max; conditions: 0 to 10 scale
How it was run: as §1

wheat = assay: as above; format: in vivo, Triticum aestivum; conditions: 0 to 10 scale
How it was run: as §1

wild oat = assay: as above; format: in vivo, Avena fatua; conditions: 0 to 10 scale
How it was run: as §1

purple nutsedge = assay: as above; format: in vivo, Cyperus rotundus; conditions: 0 to 10 scale
How it was run: as §1

barley = assay: Test C preemergence/postemergence greenhouse plant response rating 0 to 100; format: in vivo, Hordeum vulgare; conditions: PREEMERGENCE; for Plant response rating Barley Igri: 0 to 100 scale
Text: (§2) The compounds evaluated in this test were formulated in a non-phytoxic solvent and applied to the soil surface before plant seedlings emerged (preemergence application), to water that covered the soil surface (flood application), and to plants that were in the one-to-four leaf stage (postemergence application). A sandy loam soil was used for the preemergence and postemergence tests, while a silt loam soil was used in the flood test. Water depth was approximately 2.5 cm for the flood test and was maintained at this level for the duration of the test. Plant species in the preemergence and postemergence tests consisted of barley (Hordeum vulgare), bedstraw (Galium aparine), blackgrass (Alopecurus myosuroides), chickweed (Stellaria media), corn (Zea mays), cotton (Gossypium hirsutum), crabgrass (Digitaria sanguinalis), downy brome (Bromus tectorum), giant foxtail (Setaria faberii), lambsquarters (Chenopodium album), morningglory (Ipomoea hederacea), pigweed ([…]), rape (Brassica napus), ryegrass (Lolium multiflorum), sorghum (Sorghum bicolor), soybean (Glycine max), speedwell (Veronica persica), sugar beet (Beta vulgaris), velvetleaf (Abutilon theophrasti), wheat (Triticum aestivum), wild buckwheat (Polygonum convolvulus), and wild oat (Avena fatua). All plant species were planted one day before application of the compound for the preemergence portion-of this test. Plantings of these species were adjusted to produce plants of appropriate size for the post-emergence portion of the test. […] All plant species were grown using normal greenhouse practices. Visual evaluations of injury expressed on treated plants, when compared to untreated controls, were recorded approximately fourteen to twenty one days after application of the test compound. […] A dash (-) response means no test result.

bedstraw = assay: as above; format: in vivo, Galium aparine; conditions: PREEMERGENCE; for Plant response rating, Bedstraw: 0 to 100 scale
Text: as §2

chickweed [4] = assay: as above; format: in vivo, Stellaria media; conditions: PREEMERGENCE; for Plant response rating, Chickweed: 0 to 100 scale
Text: as §2

downy brome = assay: as above; format: in vivo, Bromus tectorum; conditions: PREEMERGENCE; for Plant response rating Downy Brome: 0 to 100 scale
Text: as §2

morningglory [5] = assay: as above; format: in vivo, Ipomoea hederacea; conditions: PREEMERGENCE; for Plant response rating, Morningglory: 0 to 100 scale
Text: as §2

soybean [6] = assay: as above; format: in vivo, Glycine max; conditions: PREEMERGENCE
Text: as §2

wild buckwheat = assay: as above; format: in vivo, Polygonum convolvulus; conditions: PREEMERGENCE
Text: as §2

CCCN1C(=O)COc2cc(F)c(-c3nn4c(c3Br)CCCC4)cc21 [Compound 63]
Plant response rating, Chickweed (chickweed [1]; POSTEMERGENCE, Rate 10 g/ha): 5
Plant response rating, Chickweed (chickweed [1]; POSTEMERGENCE, Rate 50 g/ha): 9
Plant response rating, Chickweed (chickweed [1]; PREEMERGENCE, Rate 10 g/ha): 0
Plant response rating, Chickweed (chickweed [1]; PREEMERGENCE, Rate 50 g/ha): 9
Plant response rating, Corn (corn; POSTEMERGENCE, Rate 10 g/ha): 2
Plant response rating, Corn (corn; POSTEMERGENCE, Rate 50 g/ha): 2
Plant response rating, Corn (corn; PREEMERGENCE, Rate 50 g/ha): 0
Plant response rating, Crabgrass (crabgrass; POSTEMERGENCE, Rate 10 g/ha): 3
Plant response rating, Crabgrass (crabgrass; POSTEMERGENCE, Rate 50 g/ha): 3
Plant response rating, Crabgrass (crabgrass; PREEMERGENCE, Rate 10 g/ha): 0
Plant response rating, Crabgrass (crabgrass; PREEMERGENCE, Rate 50 g/ha): 0
Plant response rating, Morningglory (morningglory [2]; POSTEMERGENCE, Rate 10 g/ha): 8
Plant response rating, Morningglory (morningglory [2]; POSTEMERGENCE, Rate 50 g/ha): 10
Plant response rating, Morningglory (morningglory [2]; PREEMERGENCE, Rate 50 g/ha): 0
Plant response rating, Rape (rape; POSTEMERGENCE, Rate 10 g/ha): 9
Plant response rating, Rape (rape; POSTEMERGENCE, Rate 50 g/ha): 9
Plant response rating, Rape (rape; PREEMERGENCE, Rate 50 g/ha): 6
Plant response rating, Sorghum (sorghum; POSTEMERGENCE, Rate 10 g/ha): 3
Plant response rating, Sorghum (sorghum; POSTEMERGENCE, Rate 50 g/ha): 5
Plant response rating, Sorghum (sorghum; PREEMERGENCE, Rate 50 g/ha): 0
Plant response rating, Soybean (soybean [3]; POSTEMERGENCE, Rate 10 g/ha): 6
Plant response rating, Soybean (soybean [3]; POSTEMERGENCE, Rate 50 g/ha): 5
Plant response rating, Soybean (soybean [3]; PREEMERGENCE, Rate 50 g/ha): 0
Plant response rating, Wheat (wheat; POSTEMERGENCE, Rate 10 g/ha): 4
Plant response rating, Wheat (wheat; POSTEMERGENCE, Rate 50 g/ha): 5
Plant response rating, Wheat (wheat; PREEMERGENCE, Rate 50 g/ha): 2
Plant response rating, Wild oat (wild oat; POSTEMERGENCE, Rate 10 g/ha): 4
Plant response rating, Wild oat (wild oat; POSTEMERGENCE, Rate 50 g/ha): 6
Plant response rating, Wild oat (wild oat; PREEMERGENCE, Rate 50 g/ha): 3
Plant response rating, Nutsedge (purple nutsedge; POSTEMERGENCE, Rate 10 g/ha): 1
Plant response rating, Nutsedge (purple nutsedge; POSTEMERGENCE, Rate 50 g/ha): 6
Plant response rating, Nutsedge (purple nutsedge; PREEMERGENCE, Rate 50 g/ha): 0
Plant response rating Barley Igri (barley; 62 g/ha): 10
Plant response rating Barley Igri (barley; 250 g/ha): 40
Plant response rating (0 to 100), Barley Igri (barley; Rate 4 g/ha): 0
Plant response rating (0 to 100), Barley Igri (barley; Rate 16 g/ha): 0
Plant response rating, Bedstraw (bedstraw; 62 g/ha): 100
Plant response rating, Bedstraw (bedstraw; 250 g/ha): 100
Plant response rating (0 to 100), Bedstraw (bedstraw; Rate 4 g/ha): 0
Plant response rating (0 to 100), Bedstraw (bedstraw; Rate 16 g/ha): 10
Plant response rating, Chickweed (chickweed [4]; 62 g/ha): 30
Plant response rating, Chickweed (chickweed [4]; 250 g/ha): 50
Plant response rating (0 to 100), Chickweed (chickweed [4]; Rate 4 g/ha): 10
Plant response rating (0 to 100), Chickweed (chickweed [4]; Rate 16 g/ha): 20
Plant response rating Downy Brome (downy brome; 62 g/ha): 20
Plant response rating Downy Brome (downy brome; 250 g/ha): 50
Plant response rating (0 to 100), Downy Brome (downy brome; Rate 4 g/ha): 0
Plant response rating (0 to 100), Downy Brome (downy brome; Rate 16 g/ha): 0
Plant response rating, Morningglory (morningglory [5]; 62 g/ha): 40
Plant response rating, Morningglory (morningglory [5]; 250 g/ha): 100
Plant response rating (0 to 100), Morningglory (morningglory [5]; Rate 4 g/ha): 0
Plant response rating (0 to 100), Morningglory (morningglory [5]; Rate 16 g/ha): 10
Plant response rating, Soybean (soybean [6]; 250 g/ha, 0 to 100 scale): 20
Plant response rating (0 to 100), Soybean (soybean [6]; Rate 4 g/ha): 0
Plant response rating (0 to 100), Soybean (soybean [6]; Rate 16 g/ha): 0
Plant response rating, Wild buckwheat (wild buckwheat; 250 g/ha, 0 to 100 scale): 100
Plant response rating (0 to 100), Wild buckwheat (wild buckwheat; Rate 4 g/ha): 0
Plant response rating (0 to 100), Wild buckwheat (wild buckwheat; Rate 16 g/ha): 50
